Measurements: ChEMBL document CHEMBL4346715, “Antibacterial activity study of 1,2,4-triazole derivatives” (Eur J Med Chem, 2019)
Converted amounts (≈) assume the structure as drawn.

How the values were obtained:
Escherichia coli [1] = test: Antibacterial activity against Escherichia coli assessed as zone of inhibition; format: functional
Salmonella typhimurium = test: Antibacterial activity against Salmonella typhimurium assessed as zone of inhibition; format: functional, Salmonella enterica subsp. enterica serovar Typhimurium
Staphylococcus aureus [2] = test: Antibacterial activity against Staphylococcus aureus assessed as zone of inhibition; format: functional
Bacillus subtilis [3] = test: Antibacterial activity against Bacillus subtilis assessed as zone of inhibition; format: functional
Listeria monocytogenes [4] = test: Antibacterial activity against Listeria monocytogenes ATCC 35152 after 24 hrs by broth microdilution method; format: functional; conditions: ATCC 35152, 24 h
Listeria monocytogenes [5] = test: Potency index, ratio of ciprofloxacin MIC to test compound MIC for Listeria monocytogenes ATCC 35152 after 24 hrs by broth microdilution method; format: functional
Pseudomonas aeruginosa [6] = test: Potency index, ratio of ciprofloxacin MIC to test compound MIC for Pseudomonas aeruginosa ATCC 27853 after 24 hrs by broth microdilution method; format: functional
Pseudomonas aeruginosa [7] = test: Antibacterial activity against Pseudomonas aeruginosa ATCC 27853 after 24 hrs by broth microdilution method; format: functional; conditions: ATCC 27853, 24 h
Escherichia coli [8] = test: Antibacterial activity against Escherichia coli incubated for 18 hrs post 30 mins pre-diffusion by disk diffusion method; format: functional
Bacillus subtilis [9] = test: Antibacterial activity against Bacillus subtilis incubated for 18 hrs post 30 mins pre-diffusion by disk diffusion method; format: functional
Micrococcus luteus = test: Antibacterial activity against Micrococcus luteus incubated for 18 hrs post 30 mins pre-diffusion by disk diffusion method; format: functional
Listeria innocua = test: Antibacterial activity against Listeria innocua incubated for 18 hrs post 30 mins pre-diffusion by disk diffusion method; format: functional
Staphylococcus aureus [10] = test: Antibacterial activity against methicillin-resistant Staphylococcus aureus incubated for 18 hrs post 30 mins pre-diffusion by disk diffusion method; format: functional
Bacillus anthracis = test: Antibacterial activity against Bacillus anthracis incubated for 18 hrs post 30 mins pre-diffusion by disk diffusion method; format: functional
Staphylococcus aureus [11] = test: Antibacterial activity against Staphylococcus aureus incubated for 18 hrs post 30 mins pre-diffusion by disk diffusion method; format: functional
Candida albicans [12] = test: Antifungal activity against Candida albicans ATCC 50193 after 24 hrs by microdilution method; format: functional; conditions: ATCC 50193, 24 h
Enterococcus faecalis = test: Antibacterial activity against Enterococcus faecalis ATCC 29212 after 24 hrs by microdilution method; format: functional; conditions: ATCC 29212, 24 h
Pseudomonas aeruginosa [13] = test: Antibacterial activity against Pseudomonas aeruginosa ATCC 27853 after 24 hrs by microdilution method; format: functional; conditions: ATCC 27853, 24 h
Bacillus cereus = test: Antibacterial activity against Bacillus cereus ATCC 10876 after 24 hrs by microdilution method; format: functional; conditions: ATCC 10876, 24 h
Proteus mirabilis = test: Antibacterial activity against Proteus mirabilis ATCC 35659 after 24 hrs by microdilution method; format: functional; conditions: ATCC 35659, 24 h
Staphylococcus aureus [14] = test: Antibacterial activity against Staphylococcus aureus ATCC 25923 after 24 hrs by microdilution method; format: functional; conditions: ATCC 25923, 24 h
Escherichia coli [15] = test: Antibacterial activity against Escherichia coli ATCC 25922 after 24 hrs by microdilution method; format: functional; conditions: ATCC 25922, 24 h
Aspergillus brasiliensis = test: Antifungal activity against Aspergillus brasiliensis ATCC 16404 after 24 hrs by microdilution method; format: functional; conditions: ATCC 16404, 24 h
Streptococcus pneumoniae = test: Antibacterial activity against Streptococcus pneumoniae; format: functional
Trichophyton rubrum = test: Antifungal activity against Trichophyton rubrum; format: functional
Escherichia coli [16] = test: Antibacterial activity against Escherichia coli; format: functional
Clostridium tetani = test: Antibacterial activity against Clostridium tetani; format: functional
Aspergillus niger = test: Antifungal activity against Aspergillus niger; format: functional
Staphylococcus aureus [17] = test: Antibacterial activity against Staphylococcus aureus; format: functional
Candida albicans [18] = test: Antifungal activity against Candida albicans; format: functional
Bacillus subtilis [19] = test: Antibacterial activity against Bacillus subtilis; format: functional
Plasmodium falciparum = test: Antiplasmodial activity against Plasmodium falciparum; format: functional, organism-based
Pseudomonas aeruginosa [20] = test: Antibacterial activity against Pseudomonas aeruginosa; format: functional

N#Cc1ccc(-c2nc(-c3ccccc3)c(-c3ccccc3)n2-n2c(-c3ccc(Cl)cc3)n[nH]c2=S)cc1
inhibition zone (IZ) (Escherichia coli [1]): 10 - 18 mm | inhibition zone (IZ) (Salmonella typhimurium): 10 - 18 mm | inhibition zone (IZ) (Staphylococcus aureus [2]): 10 - 18 mm | inhibition zone (IZ) (Bacillus subtilis [3]): 10 - 18 mm

Cc1nc(-c2ccccc2)sc1-c1nnc(S)n1/N=C/c1ccc(N(C)C)cc1
MIC (Listeria monocytogenes [4]): 1.95 µg/mL (≈ 4.64 µM) | Ratio (Listeria monocytogenes [5]): 2 | Ratio (Pseudomonas aeruginosa [6]): 2 | MIC (Pseudomonas aeruginosa [7]): 1.95 µg/mL (≈ 4.64 µM)

Cn1cnc(CNCc2ncn(C)n2)n1
MIC (Escherichia coli [8]): 7 to 15 µg/mL (≈ 33.8 to 72.4 µM) | MIC (Bacillus subtilis [9]): 7 to 15 µg/mL (≈ 33.8 to 72.4 µM) | MIC (Micrococcus luteus): 7 to 15 µg/mL (≈ 33.8 to 72.4 µM) | MIC (Listeria innocua): 7 to 15 µg/mL (≈ 33.8 to 72.4 µM)

FC(F)(F)c1cc(-c2nnc(Sc3cc(Cl)nc(Sc4ccccc4)n3)[nH]2)cc(C(F)(F)F)c1
MIC (Escherichia coli [8]): 1.8 µg/mL (≈ 3.37 µM) | MIC (Staphylococcus aureus [10]): 0.75 to 1.8 µg/mL (≈ 1.4 to 3.37 µM) | MIC (Bacillus anthracis): 0.75 to 1.8 µg/mL (≈ 1.4 to 3.37 µM) | MIC (Staphylococcus aureus [11]): 3.1 µg/mL (≈ 5.81 µM)

COC(=O)c1ncn(CNCn2cnc(C(=O)OC)n2)n1
MIC (Escherichia coli [8]): 7 to 15 µg/mL (≈ 23.7 to 50.8 µM) | MIC (Bacillus subtilis [9]): 7 to 15 µg/mL (≈ 23.7 to 50.8 µM) | MIC (Micrococcus luteus): 7 to 15 µg/mL (≈ 23.7 to 50.8 µM) | MIC (Listeria innocua): 7 to 15 µg/mL (≈ 23.7 to 50.8 µM)

Fc1ccc(-c2nc(-c3ccccc3)c(-c3ccccc3)n2-n2c(-c3ccc(Cl)cc3)n[nH]c2=S)cc1
inhibition zone (IZ) (Escherichia coli [1]): 10 - 18 mm | inhibition zone (IZ) (Salmonella typhimurium): 10 - 18 mm | inhibition zone (IZ) (Staphylococcus aureus [2]): 10 - 18 mm | inhibition zone (IZ) (Bacillus subtilis [3]): 10 - 18 mm

CCCCCCCCCCn1nnc(-c2n[nH]c(=S)n2N)c1-c1n[nH]c(=S)n1N
MIC (Candida albicans [12]): 1 to 128 µg/mL (≈ 2.29 to 293 µM) | MIC (Enterococcus faecalis): 1 to 128 µg/mL (≈ 2.29 to 293 µM) | MIC (Pseudomonas aeruginosa [13]): 1 to 128 µg/mL (≈ 2.29 to 293 µM) | MIC (Bacillus cereus): 1 to 128 µg/mL (≈ 2.29 to 293 µM) | MIC (Proteus mirabilis): 1 to 128 µg/mL (≈ 2.29 to 293 µM) | MIC (Staphylococcus aureus [14]): 1 to 128 µg/mL (≈ 2.29 to 293 µM) | MIC (Escherichia coli [15]): 1 to 128 µg/mL (≈ 2.29 to 293 µM) | MIC (Aspergillus brasiliensis): 1 to 128 µg/mL (≈ 2.29 to 293 µM)

Cc1nn(-c2ccccc2)c(-n2cncn2)c1-c1cc(-c2ccc(F)cc2)nc2nc3ccccc3n12
MIC (Streptococcus pneumoniae): 62.5 to 125 µg/mL (≈ 128 to 257 µM) | MIC (Trichophyton rubrum): 100 to 500 µg/mL (≈ 206 to 1030 µM) | MIC (Escherichia coli [16]): 62.5 to 125 µg/mL (≈ 128 to 257 µM) | MIC (Clostridium tetani): 62.5 to 125 µg/mL (≈ 128 to 257 µM) | MIC (Aspergillus niger): 100 to 500 µg/mL (≈ 206 to 1030 µM) | MIC (Staphylococcus aureus [17]): 62.5 to 125 µg/mL (≈ 128 to 257 µM) | MIC (Candida albicans [18]): 100 to 500 µg/mL (≈ 206 to 1030 µM) | MIC (Bacillus subtilis [19]): 62.5 to 125 µg/mL (≈ 128 to 257 µM) | IC50 (Plasmodium falciparum): 0.041 µg/mL (≈ 0.0843 µM)

OC(Cn1cncn1)(Cn1cncn1)c1ccc(F)cc1F [FLUCONAZOLE]
MIC (Candida albicans [12]): 1 µg/mL (≈ 3.27 µM) | MIC (Enterococcus faecalis): 4 µg/mL (≈ 13.1 µM) | MIC (Aspergillus niger): 9.4 µg/mL (≈ 30.7 µM) | MIC (Pseudomonas aeruginosa [13]): 4 µg/mL (≈ 13.1 µM) | MIC (Bacillus cereus): 4 µg/mL (≈ 13.1 µM) | MIC (Proteus mirabilis): 4 µg/mL (≈ 13.1 µM) | MIC (Staphylococcus aureus [14]): 4 µg/mL (≈ 13.1 µM) | MIC (Escherichia coli [15]): 4 µg/mL (≈ 13.1 µM) | MIC (Candida albicans [18]): 10.2 µg/mL (≈ 33.3 µM) | MIC (Aspergillus brasiliensis): 1 µg/mL (≈ 3.27 µM)

CC1(C)S[C@@H]2[C@H](NC(=O)[C@H](N)c3ccccc3)C(=O)N2[C@H]1C(=O)O [AMPICILLIN]
MIC (Staphylococcus aureus [10]): 31 to 1000 µg/mL (≈ 88.7 to 2860 µM) | MIC (Streptococcus pneumoniae): 100 to 250 µg/mL (≈ 286 to 715 µM) | MIC (Escherichia coli [16]): 100 to 250 µg/mL (≈ 286 to 715 µM) | MIC (Clostridium tetani): 100 to 250 µg/mL (≈ 286 to 715 µM) | MIC (Pseudomonas aeruginosa [20]): 10.2 µg/mL (≈ 29.2 µM) | MIC (Bacillus anthracis): 31 to 1000 µg/mL (≈ 88.7 to 2860 µM) | MIC (Staphylococcus aureus [17]): 10.9 µg/mL (≈ 31.2 µM) | MIC (Bacillus subtilis [19]): 100 to 250 µg/mL (≈ 286 to 715 µM)

S=c1[nH]nc(-c2ccc(Cl)cc2)n1-n1c(-c2ccc(Br)cc2)nc(-c2ccccc2)c1-c1ccccc1
inhibition zone (IZ) (Escherichia coli [1]): 10 - 18 mm | inhibition zone (IZ) (Salmonella typhimurium): 10 - 18 mm | inhibition zone (IZ) (Staphylococcus aureus [2]): 10 - 18 mm | inhibition zone (IZ) (Bacillus subtilis [3]): 10 - 18 mm

C=C[C@H]1CN2CC[C@H]1C[C@H]2[C@H](O)c1ccnc2ccc(OC)cc12 [QUININE]
IC50 (Plasmodium falciparum): 0.268 µg/mL (≈ 0.826 µM)

NC[C@H]1O[C@H](O[C@H]2[C@H](O)[C@@H](O[C@H]3O[C@H](CO)[C@@H](O)[C@H](N)[C@H]3O)[C@H](N)C[C@@H]2N)[C@H](O)[C@@H](O)[C@@H]1O [KANAMYCIN]
MIC (Staphylococcus aureus [10]): 31 to 1000 µg/mL (≈ 64 to 2060 µM) | MIC (Bacillus anthracis): 31 to 1000 µg/mL (≈ 64 to 2060 µM)

O=C(O)c1cn(C2CC2)c2cc(N3CCNCC3)c(F)cc2c1=O [CIPROFLOXACIN]
MIC (Candida albicans [12]): 1 to 8 µg/mL (≈ 3.02 to 24.1 µM) | MIC (Listeria monocytogenes [4]): 3.9 µg/mL (≈ 11.8 µM) | MIC (Enterococcus faecalis): 1 to 8 µg/mL (≈ 3.02 to 24.1 µM) | MIC (Pseudomonas aeruginosa [13]): 1 to 8 µg/mL (≈ 3.02 to 24.1 µM) | MIC (Bacillus cereus): 1 to 8 µg/mL (≈ 3.02 to 24.1 µM) | MIC (Proteus mirabilis): 1 to 8 µg/mL (≈ 3.02 to 24.1 µM) | MIC (Pseudomonas aeruginosa [7]): 3.9 µg/mL (≈ 11.8 µM) | MIC (Staphylococcus aureus [14]): 1 to 8 µg/mL (≈ 3.02 to 24.1 µM) | MIC (Escherichia coli [15]): 1 to 8 µg/mL (≈ 3.02 to 24.1 µM) | MIC (Aspergillus brasiliensis): 1 to 8 µg/mL (≈ 3.02 to 24.1 µM)

COC(=O)c1ncn(CN(Cn2cnc(C(=O)OC)n2)C(C)C)n1
MIC (Escherichia coli [8]): 7 to 15 µg/mL (≈ 20.8 to 44.5 µM) | MIC (Bacillus subtilis [9]): 7 to 15 µg/mL (≈ 20.8 to 44.5 µM) | MIC (Micrococcus luteus): 7 to 15 µg/mL (≈ 20.8 to 44.5 µM) | MIC (Listeria innocua): 7 to 15 µg/mL (≈ 20.8 to 44.5 µM)

CN(C)[C@@H]1C(O)=C(C(N)=O)C(=O)[C@@]2(O)C(O)=C3C(=O)c4c(O)cccc4[C@@](C)(O)[C@H]3C[C@@H]12 [TETRACYCLINE]
MIC (Escherichia coli [8]): 20 to 21 µg/mL (≈ 45 to 47.3 µM) | inhibition zone (IZ) (Escherichia coli [1]): 14 - 17 mm | MIC (Staphylococcus aureus [10]): 31 to 1000 µg/mL (≈ 69.8 to 2250 µM) | MIC (Bacillus subtilis [9]): 20 to 21 µg/mL (≈ 45 to 47.3 µM) | inhibition zone (IZ) (Salmonella typhimurium): 14 - 17 mm | MIC (Micrococcus luteus): 20 to 21 µg/mL (≈ 45 to 47.3 µM) | MIC (Bacillus anthracis): 31 to 1000 µg/mL (≈ 69.8 to 2250 µM) | inhibition zone (IZ) (Staphylococcus aureus [2]): 14 - 17 mm | inhibition zone (IZ) (Bacillus subtilis [3]): 14 - 17 mm | MIC (Listeria innocua): 20 to 21 µg/mL (≈ 45 to 47.3 µM)

CC[C@H]1OC(=O)[C@H](C)[C@@H](O[C@H]2C[C@@](C)(OC)[C@@H](O)[C@H](C)O2)[C@H](C)[C@@H](O[C@@H]2O[C@H](C)C[C@H](N(C)C)[C@H]2O)[C@](C)(O)C[C@@H](C)C(=O)[C@H](C)[C@@H](O)[C@]1(C)O [ERYTHROMYCIN]
MIC (Staphylococcus aureus [10]): 31 to 1000 µg/mL (≈ 42.2 to 1360 µM) | MIC (Bacillus anthracis): 31 to 1000 µg/mL (≈ 42.2 to 1360 µM)
